ChEMBL document CHEMBL3797190, “Development of 3,5-Dinitrobenzylsulfanyl-1,3,4-oxadiazoles and Thiadiazoles as Selective Antitubercular Agents Active Against Replicating and Nonreplicating Mycobacterium tuberculosis” (J Med Chem, 2016)
Values after ≈ are worked out from the molar mass of the structure shown.

What was measured:
[1] = Cytotoxicity against MDCK2-MDR1 cells assessed as cell viability at 20 uM after 24 hrs by MTS assay; format: ADME, cell-based, Canis lupus familiaris, MDCK-II; conditions: dog, read-out: Activity
[2] = Cytotoxicity against human HeLa cells assessed as cell viability at 20 uM after 24 hrs by MTS assay; format: cell-based; conditions: read-out: Activity
[3] = Cytotoxicity against human HuH7 cells assessed as cell viability at 20 uM after 24 hrs by MTS assay; format: cell-based, Huh-7; conditions: read-out: Activity
[4] = Cytotoxicity against MDCK2-MDR1 cells assessed as cell viability after 24 hrs by MTS assay; format: ADME, cell-based; conditions: Canis lupus familiaris, MDCK-II
[5] = Cytotoxicity against human HuH7 cells assessed as cell viability at 20 uM after 48 hrs by MTS assay; format: cell-based, Huh-7; conditions: read-out: Activity
[6] = system: HeLa; assay: Cytotoxicity against human HeLa cells assessed as cell viability after 24 hrs by MTS assay; format: cell-based
[7] = system: Mycobacterium kansasii; assay: Antimycobacterial activity against Mycobacterium kansasii CNCTC My 6509/96 after 21 days by microdilution method; format: functional; conditions: CNCTC My 6509/96, 504 h
[8] = Cytotoxicity against MDCK2-MDR1 cells assessed as cell viability at 20 uM after 48 hrs by MTS assay; format: ADME, cell-based, Canis lupus familiaris, MDCK-II; conditions: dog, read-out: Activity
[9] = Cytotoxicity against human HeLa cells assessed as cell viability at 20 uM after 48 hrs by MTS assay; format: cell-based; conditions: read-out: Activity
[10] = Cytotoxicity against MDCK2-MDR1 cells assessed as cell viability after 48 hrs by MTS assay; format: ADME, cell-based; conditions: Canis lupus familiaris, MDCK-II
[11] = Cytotoxicity against human HuH7 cells assessed as cell viability after 24 hrs by MTS assay; format: cell-based; conditions: Huh-7, 24 h
[12] = system: Klebsiella pneumoniae; assay: Antibacterial activity against Klebsiella pneumoniae D 11750/08 after 24 to 48 hrs by broth microdilution method; format: functional
[13] = system: Candida tropicalis; assay: Antifungal activity against Candida tropicalis 156 after 24 to 48 hrs by broth microdilution method; format: functional
[14] = system: Mycobacterium kansasii; assay: Antimycobacterial activity against Mycobacterium kansasii CNCTC My 6509/96 after 7 days by microdilution method; format: functional; conditions: CNCTC My 6509/96, 168 h
[15] = system: Mycobacterium kansasii; assay: Antimycobacterial activity against Mycobacterium kansasii CNCTC My 235/80 after 7 days by microdilution method; format: functional; conditions: CNCTC My 235/80, 168 h
[16] = system: Mycobacterium kansasii; assay: Antimycobacterial activity against Mycobacterium kansasii CNCTC My 235/80 after 14 days by microdilution method; format: functional; conditions: CNCTC My 235/80, 336 h
[17] = system: Mycobacterium avium; assay: Antimycobacterial activity against Mycobacterium avium CNCTC My 330/88 after 21 days by microdilution method; format: functional; conditions: CNCTC My 330/88, 504 h
[18] = system: Candida albicans; assay: Antifungal activity against Candida albicans ATCC 44859 after 24 to 48 hrs by broth microdilution method; format: functional
[19] = system: Pseudomonas aeruginosa; assay: Antibacterial activity against Pseudomonas aeruginosa ATCC 9027 after 24 to 48 hrs by broth microdilution method; format: functional
[20] = system: Klebsiella pneumoniae; assay: Antibacterial activity against ESBL producing Klebsiella pneumoniae J 14368/08 after 24 to 48 hrs by broth microdilution method; format: functional
[21] = system: Staphylococcus epidermidis; assay: Antibacterial activity against Staphylococcus epidermidis H 6966/08 after 24 to 48 hrs by broth microdilution method; format: functional
[22] = system: Lichtheimia corymbifera; assay: Antifungal activity against Absidia corymbifera 272 after 24 to 48 hrs by broth microdilution method; format: functional
[23] = system: Trichosporon asahii; assay: Antifungal activity against Trichosporon asahii 1188 after 24 to 48 hrs by broth microdilution method; format: functional
[24] = system: Nakaseomyces glabratus; assay: Antifungal activity against Candida glabrata 20/I after 24 to 48 hrs by broth microdilution method; format: functional
[25] = system: Escherichia coli; assay: Antibacterial activity against Escherichia coli ATCC 8739 after 24 to 48 hrs by broth microdilution method; format: functional
[26] = system: Mycobacterium kansasii; assay: Antimycobacterial activity against Mycobacterium kansasii CNCTC My 6509/96 after 14 days by microdilution method; format: functional; conditions: CNCTC My 6509/96, 336 h
[27] = system: Trichophyton mentagrophytes; assay: Antifungal activity against Trichophyton mentagrophytes 445 after 72 to 120 hrs by broth microdilution method; format: functional
[28] = system: Aspergillus fumigatus; assay: Antifungal activity against Aspergillus fumigatus 231 after 24 to 48 hrs by broth microdilution method; format: functional
[29] = system: Enterococcus faecalis; assay: Antibacterial activity against Enterococcus faecalis J 14365/08 after 24 to 48 hrs by broth microdilution method; format: functional
[30] = system: Mycobacterium avium; assay: Antimycobacterial activity against Mycobacterium avium CNCTC My 330/88 after 14 days by microdilution method; format: functional; conditions: CNCTC My 330/88, 336 h
[31] = system: Mycobacterium kansasii; assay: Antimycobacterial activity against Mycobacterium kansasii CNCTC My 235/80 after 21 days by microdilution method; format: functional; conditions: CNCTC My 235/80, 504 h
[32] = system: Mycobacterium tuberculosis; assay: Antimycobacterial activity against Mycobacterium tuberculosis CNCTC My 331/88 after 14 days by microdilution method; format: functional; conditions: CNCTC My 331/88, 336 h
[33] = system: Staphylococcus aureus; assay: Antibacterial activity against methicillin-resistant Staphylococcus aureus H 5996/08 after 24 to 48 hrs by broth microdilution method; format: functional
[34] = system: Staphylococcus aureus; assay: Antibacterial activity against Staphylococcus aureus ATCC 6538 after 24 to 48 hrs by broth microdilution method; format: functional
[35] = system: Mycobacterium tuberculosis; assay: Antimycobacterial activity against Mycobacterium tuberculosis CNCTC My 331/88 after 21 days by microdilution method; format: functional; conditions: CNCTC My 331/88, 504 h
[36] = system: Pichia kudriavzevii; assay: Antifungal activity against Candida krusei E28 after 24 to 48 hrs by broth microdilution method; format: functional
[37] = system: Salmonella typhimurium; assay: Mutagenic activity in Salmonella typhimurium TA98 assessed as reverse mutation at 30 uM by Ames test; format: toxicity, organism-based; conditions: salmonella enterica subsp. enterica serovar typhimurium
[38] = system: Salmonella typhimurium; assay: Mutagenic activity in Salmonella typhimurium TA100 assessed as reverse mutation at 30 uM by Ames test; format: toxicity, organism-based; conditions: salmonella enterica subsp. enterica serovar typhimurium
[39] = system: HeLa; assay: Cytotoxicity against human HeLa cells assessed as cell viability after 48 hrs by MTS assay; format: cell-based

Compound | viability at 24 h, 20 µM [1] [%] | viability at 24 h, 20 µM [2] [%] | viability at 24 h, 20 µM [3] [%] | IC50 [4] [µM] | viability at 48 h, 20 µM [5] [%] | IC50 [6] [µM] | MIC99 [7] [µM] | viability at 48 h, 20 µM [8] [%] | viability at 48 h, 20 µM [9] [%] | IC50 [11] [µM] | MIC95 [12] [µM] | MIC99 [14] [µM] | MIC99 [15] [µM] | MIC99 [16] [µM] | MIC99 [17] [µM] | MIC99 [26] [µM] | MIC99 [30] [µM] | MIC99 [31] [µM] | MIC99 [32] [µM] | MIC99 [35] [µM] | also measured
COc1ccc(-c2nnc(SCc3cc([N+](=O)[O-])cc([N+](=O)[O-])c3)o2)cc1 | 80.6 | 83.9 | 91.6 | > 20 | 34.1 | > 20 | 0.5 (≈ 0.194 µg/mL) | 14.5 | 37.3 | > 20 |  |  |  |  |  |  |  |  |  |  | IC50 [10]: 10.6 µM
O=[N+]([O-])c1ccc(CSc2nnc(-c3ccc(Cl)cc3)s2)c([N+](=O)[O-])c1 |  |  |  |  |  |  | 4 (≈ 1.64 µg/mL) |  |  |  | > 125 | 1 (≈ 0.409 µg/mL) | 1 (≈ 0.409 µg/mL) | 2 (≈ 0.818 µg/mL) | 8 (≈ 3.27 µg/mL) | 2 (≈ 0.818 µg/mL) | 4 (≈ 1.64 µg/mL) | 4 (≈ 1.64 µg/mL) | 2 (≈ 0.818 µg/mL) | 4 (≈ 1.64 µg/mL) | MIC80 [13]: > 125 µM; MIC80 [18]: > 125 µM; MIC95 [19]: > 125 µM; MIC95 [20]: > 125 µM; MIC95 [21]: > 125 µM; MIC50 [22]: > 125 µM; MIC80 [23]: > 125 µM; MIC80 [24]: > 125 µM; MIC95 [25]: > 125 µM; MIC50 [27]: > 125 µM; MIC50 [28]: > 125 µM; MIC95 [29]: > 125 µM; MIC95 [33]: > 125 µM; MIC95 [34]: > 125 µM; MIC80 [36]: > 125 µM
O=[N+]([O-])c1ccc(CSc2nnc(-c3ccc(Cl)cc3)o2)c([N+](=O)[O-])c1 |  |  |  |  |  |  | 8 (≈ 3.14 µg/mL) |  |  |  | > 125 | 4 (≈ 1.57 µg/mL) | 2 (≈ 0.786 µg/mL) | 4 (≈ 1.57 µg/mL) | 16 (≈ 6.28 µg/mL) | 8 (≈ 3.14 µg/mL) | 8 (≈ 3.14 µg/mL) | 4 (≈ 1.57 µg/mL) | 2 (≈ 0.786 µg/mL) | 2 (≈ 0.786 µg/mL) | MIC80 [13]: > 125 µM; MIC80 [18]: > 125 µM; MIC95 [19]: > 125 µM; MIC95 [20]: > 125 µM; MIC95 [21]: > 125 µM; MIC50 [22]: > 125 µM; MIC80 [23]: > 125 µM; MIC80 [24]: > 125 µM; MIC95 [25]: > 125 µM; MIC50 [27]: > 125 µM; MIC50 [28]: > 125 µM; MIC95 [29]: > 125 µM; MIC95 [33]: > 125 µM; MIC95 [34]: > 125 µM; MIC80 [36]: > 125 µM
O=[N+]([O-])c1ccc2c(c1)Cc1ccccc1-2 [2-NITROFLUORENE] |  |  |  |  |  |  |  |  |  |  |  |  |  |  |  |  |  |  |  |  | Activity [37]: Toxic
COc1cccc(-c2nnc(SCc3cc([N+](=O)[O-])cc([N+](=O)[O-])c3)o2)c1 | 105 | 74.2 | 89.6 | > 20 | 47 | > 20 | 1 (≈ 0.388 µg/mL) | 10.5 | 16.4 | > 20 | > 125 | 0.125 (≈ 0.0485 µg/mL) | 0.125 (≈ 0.0485 µg/mL) | 0.25 (≈ 0.0971 µg/mL) | 16 (≈ 6.21 µg/mL) | 0.5 (≈ 0.194 µg/mL) | 16 (≈ 6.21 µg/mL) | 0.5 (≈ 0.194 µg/mL) | 0.125 (≈ 0.0485 µg/mL) | 0.125 (≈ 0.0485 µg/mL) | MIC80 [13]: > 125 µM; MIC80 [18]: > 125 µM; MIC95 [19]: > 125 µM; MIC95 [20]: > 125 µM; MIC95 [21]: > 125 µM; MIC50 [22]: > 125 µM; MIC80 [23]: > 125 µM; MIC80 [24]: > 125 µM; MIC95 [25]: > 125 µM; MIC50 [27]: > 125 µM; MIC50 [28]: > 125 µM; MIC95 [29]: > 125 µM; Activity [38]: Non-toxic; Activity [37]: Non-toxic; IC50 [39]: 4.1 µM; MIC95 [33]: > 125 µM; MIC95 [34]: > 125 µM; MIC80 [36]: > 125 µM
O=[N+]([O-])c1cc(CSc2nnc(-c3cccc(Cl)c3)o2)cc([N+](=O)[O-])c1 | 93.3 | 81.9 | 97.9 | > 20 | 45.9 | > 20 | 1 (≈ 0.393 µg/mL) | 57.9 | 34.6 | > 20 |  | 0.125 (≈ 0.0491 µg/mL) | 0.125 (≈ 0.0491 µg/mL) | 0.25 (≈ 0.0982 µg/mL) | 16 (≈ 6.28 µg/mL) | 0.5 (≈ 0.196 µg/mL) | 16 (≈ 6.28 µg/mL) | 0.5 (≈ 0.196 µg/mL) | ≤ 0.03 | 0.06 (≈ 0.0236 µg/mL) | Activity [38]: Non-toxic; IC50 [10]: > 20 µM; Activity [37]: Non-toxic
